This is an account of results in patent US20260132115A1, “SUBSTITUTED 3-FLUOROBENZENEPROPANOATE COMPOUND AND PREPARATION METHOD THEREFOR, PHARMACEUTICAL COMPOSITION THEREOF, AND USE THEREOF” (TIANJIN GUDUI BIO-PHARM CO., LTD., priority 2022, published 2026).

Where two headings read alike, the source gives them in different places.

Data set [1] deals with λ-Carrageenan-Induced Rat Toe Swelling. Description: Anti-inflammatory effect on λ-carrageenan-induced rat toe swelling. In kind it is in vivo, SD rats. The conditions noted are these: Rattus norvegicus, ip, 10 mg/kg intraperitoneal, 1 h before 1% λ-carrageenan. Here is the method: Experimental method: Male SD rats weighing 150-160 g were randomly grouped, with 10 rats in each group. The rats were intraperitoneally injected with saline, the compounds of the present disclosure, and the control drug flurbiprofen or flurbiprofen axetil respectively, all of which were administered at a dose of 10 mg/kg and a dosing volume of 10 μL/g. At 1 h after administration, 100 μL of 1% λ-carrageenan was injected into the right hind toe of each rat to induce inflammation. Afterwards, the paw volume was measured every 1 h using a paw volume meter to calculate the swelling inhibition rate.

In data set [2] the test system is Dry Yeast-Induced Rat Fever Models. Description: Antipyretic effect on dry yeast-induced fever in rats. The format is in vivo, SD rats. The conditions noted are these: rectal temperature, 10 mg/kg intraperitoneal, 20 min before 20% dry yeast s.c. How it is done:
Experimental method: Male SD rats, aged 4 weeks, were randomly grouped, with 10 rats in each group. […] The rats were intraperitoneally injected with saline, the compounds of the present disclosure or the control drug flurbiprofen respectively, all of which were administered at a dose of 10 mg/kg and a dosing volume of 10 μL/g. At 20 min after administration, 20% active dry yeast suspension was injected subcutaneously. After modeling, the rectal temperatures were measured at 4 h and 8 h.

The next data set deals with Eca-109. Description: Antitumor potency, MTT method, Eca-109. In kind it is cell-based. The conditions noted are these: Homo sapiens, 72 h incubation. Here is the method:
(§1) Experimental method: The antitumor potency was tested by the MTT method. Tumor cells at the logarithmic phase were collected. The concentration of the cell suspension was adjusted. 100 μL of the cell suspension was added to each well. Cell plating was carried out and the cell density was adjusted to 1000 to 10000/well (the marginal wells were filled with sterile PBS). The cells were incubated at 5% CO2 and 37° C. until the cells adhered to the wall (96-well flat-bottomed plate). Drugs of different concentration gradients were added, 100 μL per well. Four replicates were set up. Under the conditions of 5% CO2 and 37° C., the cells were incubated for 72 h and observed under an inverted microscope. The prepared MTT solution (5 mg/mL) was added to the 96-well plate, 20 μL per well, mixed well, and incubated for 4 h under the conditions of 37° C. and 5% CO2. Afterwards, the liquid in the plate was discarded. 150 μL of DMSO was added to each well and oscillated for 3 min on a microplate reader. The OD value (optical density) was detected at 490 nm.
(§2) The inhibition rate of the drug against the tumor cell growth was calculated according to the following formula: […]
A general note: Tetrazolium dyes change colour on reduction, which living cells bring about.

The subject of another data set is MM.1S. Description: Antitumor potency, MTT method, MM.1S. In kind it is cell-based. The conditions noted are these: Homo sapiens, MM1.S, 72 h incubation. How it is done:
as §1, §2

Another data set deals with NUGC-4. Description: Antitumor potency, MTT method, NUGC-4. In kind it is cell-based. The conditions noted are these: Homo sapiens, 72 h incubation. Here is the method:
as §1, §2

The subject of a further data set is U87. Description: Antitumor potency, MTT method, U87. In kind it is cell-based. The following applies: Homo sapiens, U-87 MG, 72 h incubation. Here is the method: as §1, §2
The subject of the next data set is U251. Description: Antitumor potency, MTT method, U251. In kind it is cell-based. The following applies: Homo sapiens, U-251, 72 h incubation. Here is the method: as §1, §2
For a further data set, the system named is H460. Description: Antitumor potency, MTT method, H460. In kind it is cell-based. The following applies: Homo sapiens, NCI-H460, 72 h incubation. How it is done: as §1, §2
In the next data set the test system is rats with CIA. Description: Analgesic and anti-inflammatory effects on collagen-induced rheumatoid arthritis (CIA) in rats. In kind it is in vivo, Lewis rats. The conditions noted are these: for paw volume effect as compared to the flurbiprofen group: left hind limb, 14-day intervention, 10 mg/kg (FIG. 3); for MWT effect as compared to the flurbiprofen group: left lower limb, 13-day intervention, 10 mg/kg (FIG. 4). Here is the method:
Experimental method: Female Lewis rats, aged 6-8 weeks, were randomly grouped, with 8 rats in each group. Under the ambient temperature of 20.5° C. to 24.5° C. and the humidity of 40% to 70%, the light period was 12-h bright and 12-h dark. Type II collagen was mixed with Freund's incomplete adjuvant (IFA) at a ratio of 1:1 and fully emulsified on ice before use. 100 μL of the mixed solution was injected intradermally at the part 2 to 3 cm from the base of the rat tail, and 50 μL of the mixed solution was injected into the bases of both hind limbs separately. The rats in the blank control group were injected with an equal volume of saline. IFA was used for re-immunization 7 days later. […] Rats with a total score of more than 2 on both hind limbs were selected and randomly divided into a model group, a flurbiprofen group, a compound 33 group, a compound 2 group, a compound 13 group, a compound 20 group, and a compound 35 group according to the body weight, score and paw volume, and furthermore a blank control group was set up, with 8 rats in each group. The dosing […] was […], and the dosing time was 14 days. A corresponding volume of solvent was administered in the model group and the blank control group.
Test indicators: body weight, arthritis score, hind limb paw volume, and mechanical foot threshold (MWT).
Standard for arthritis score: 0=normal; 1=erythema and slight swelling observed at the ankle joint; 2=erythema and slight swelling observed from the ankle joint to the metatarsal joint or the metacarpal joint; 3=erythema and moderate swelling observed from the ankle joint to the metatarsophalangeal joint or the metacarpal joint; 4=erythema and severe swelling observed from the ankle joint to the metatarsal joint; the total score of all (four) paws was calculated, and the sum of the arthritis indices was up to 16 per rat.

Data set [3] can be described thus: In vivo pharmacokinetic assay in rats (gavage, plasma). The conditions noted are these: female, Sprague Dawley, po, prototype drug in rat plasma, dose equimolar to 50 mg/kg flurbiprofen. Here is the method:
Experimental method: Adult female Sprague Dawley rats, aged 8-10 weeks and weighing 200±20 g, were randomly grouped, with 3 rats in each group. Rats in each of the groups were administered by gavage at a dose of 50 mg/kg of flurbiprofen and an equimolar dose of other example compounds to 50 mg/kg of flurbiprofen, respectively. After gavage administration, blood was collected at 0.0833 […], and 24 h into sodium heparin anticoagulant tubes, respectively. The blood was collected by the following method: 250 μL of blood were collected from the orbital venous plexuses of the rats. After blood collection, the blood samples were centrifuged at 12000 rpm in a centrifuge for 5 min. All plasma was aspirated into a 1.5-mL centrifuge tube, and the plasma was stored in a refrigerator at -80° C. The pharmacokinetic parameters were determined by the external standard curve method. Sample processing: after the cryopreserved samples were removed and restored to room temperature, the samples were vortexed evenly and then diluted two folds with methanol; the sample solution was diluted 5 folds by adding a mixed extractant of 0.5% formic acid-containing acetonitrile:methanol=7:3, and subjected to vortex oscillation for 1 min. Subsequently, the resultant was centrifuged at 4° C. and 12000 rpm for 10 min, and then 5 μL of the supernatant was measured for assay. The pharmacokinetic parameters in the Examples were calculated using the Winnonlin software.

The mark [4] stands for this setting: 6 h, read-out: Toe Swelling Inhibition Rate at 6 h.
[5] abbreviates: 24 h, read-out: Toe Swelling Inhibition Rate at 24 h.

Take `CC(C(=O)O)c1ccc(-c2ccccc2)c(F)c1` (stereo not drawn) [Flurbiprofen, reference compound]: the results for the inhibition in vivo at 10 mg/kg in data set [1] (setting [4]) and in data set [1] (setting [5]) were 35.5% and 29.9%, respectively. Also, in data set [2], the “Temp. at 4 h After Dosing” value is 37.49 ± 0.43 °C. For the same compound, the “Temp. at 8 h After Dosing” value in data set [2] turned out to be 37.67 ± 0.39 °C. Besides, the half-maximal inhibitory concentration (IC50) is 85.5 µM in the data set on Eca-109; greater than 100 µM in the data set with MM.1S; greater than 100 µM in the data set on NUGC-4; greater than 100 µM with U87; 34.1 µM with U251; greater than 100 µM with H460.
As for `CC(C(=O)OCOC(=O)c1ccc(O)cc1)c1ccc(-c2ccccc2)c(F)c1` (stereo not drawn) [Compound 35], the inhibition in vivo at 10 mg/kg in data set [1] (setting [4]) is 54.6%; in data set [1] (setting [5]), 49.8%. Further, the “Temp. at 4 h After Dosing” value in data set [2] turned out to be 37.15 ± 0.21 °C. Also, the “Temp. at 8 h After Dosing” value in data set [2] turned out to be 37.29 ± 0.30 °C. Moreover, the “paw volume effect as compared to the flurbiprofen group” value with rats with CIA is reported as “better effects”. The “MWT effect as compared to the flurbiprofen group” value in the data set on rats with CIA was “slightly better or better effects”. In addition, the IC50 came out at 29.6 µM in the data set with Eca-109; 45.7 µM in the data set with MM.1S; 41.8 µM with NUGC-4; 60.3 µM with U87; 7.33 µM in the data set on U251; 32.6 µM in the data set with H460.
On to `CC(C(=O)OCOC(=O)N(CCO)CCO)c1ccc(-c2ccccc2)c(F)c1` (stereo not drawn) [Compound 25], for which, in [3], the AUC turned out to be 63000 ± 11800 ng·h/mL and the peak level (Cmax) was 3860 ± 178 ng/mL. Moreover, the half-life in [3] (read-out: Prototype Drug t1/2 (converted)) was 486 ± 265 min.
Consider `CC(C(=O)OCOC(=O)N1CCC(O)CC1)c1ccc(-c2ccccc2)c(F)c1` (stereo not drawn) [Compound 20], for which the inhibition in vivo at 10 mg/kg in data set [1] (setting [4]) came out at 52.7%; in data set [1] (setting [5]), 45%. For the same compound, the “Temp. at 4 h After Dosing” value in data set [2] turned out to be 37.09 ± 0.25 °C. For the same compound, in [2], the “Temp. at 8 h After Dosing” value amounted to 37.27 ± 0.26 °C. Further, the “paw volume effect as compared to the flurbiprofen group” value in the data set with rats with CIA is reported as “better effects”. For the same compound, the “MWT effect as compared to the flurbiprofen group” value in the data set with rats with CIA is on record as “slightly better or better effects”. Further, the IC50 amounted to 33.2 µM in the data set with Eca-109; 42.8 µM with MM.1S; 50.4 µM with NUGC-4; 54.6 µM in the data set on U87; 5.84 µM with U251; 35.9 µM with H460.
As for `CCCN(CCC)C(=O)OCOC(=O)C(C)c1ccc(-c2ccccc2)c(F)c1` (stereo not drawn) [Compound 13], the inhibition in vivo at 10 mg/kg in [1] (setting [4]) was 46%; in data set [1] (setting [5]), 37%. Further, in [2], the “Temp. at 4 h After Dosing” value was determined as 37.10 ± 0.172 °C. Besides, the “Temp. at 8 h After Dosing” value in data set [2] came to 37.32 ± 0.27 °C. Also, the “paw volume effect as compared to the flurbiprofen group” value in the data set on rats with CIA is “better effects”. Further, the “MWT effect as compared to the flurbiprofen group” value in the data set on rats with CIA was “slightly better or better effects”. Moreover, the concentration for half-maximal inhibition (IC50) in the data set on Eca-109 came out at 30.7 µM; in the data set on MM.1S it was 5.39 µM; in the data set on NUGC-4, 40.1 µM; in the data set with U87, 80.5 µM; with U251, 73.9 µM; in the data set with H460, 47.9 µM.
Regarding `CCCCCCN(C)C(=O)OCOC(=O)C(C)c1ccc(-c2ccccc2)c(F)c1` (stereo not drawn) [Compound 67], the figures for the inhibition in vivo at 10 mg/kg in data set [1] (setting [4]) and in data set [1] (setting [5]) were 48.6% and 57.3%, respectively. Further, in data set [2], the “Temp. at 4 h After Dosing” value came out at 37.17 ± 0.19 °C. The “Temp. at 8 h After Dosing” value in [2] stood at 37.16 ± 0.20 °C.
On the same counts, the results for `CCCN(CCC)C(=O)OCOC(=O)[C@@H](C)c1ccc(-c2ccccc2)c(F)c1` [Compound 29] are 45.8%, 29.6%, 37.12 ± 0.13 °C and 37.35 ± 0.23 °C.

The IC50 is the concentration that inhibits the measured activity by half. Read a low IC50 as greater potency. As usually defined, the AUC is the area under the concentration-time curve, a measure of exposure. Lower therefore signals less exposure. Broadly, the Cmax is the highest concentration seen after dosing.
